The numbers were not newly measured in patent US7273889B2, “NMDA receptor antagonist formulation with reduced neurotoxicity” (Innovative Drug Delivery Systems, Inc., priority 2002, dated 2007), which cites them from elsewhere.

Where a name gives a salt, the structure may show the parent alone.

One data set deals with patients. Particulars: use as an anesthetic agent.
For data set [1], the system named is spinal cord of the animals. To be noted: multiple dose, intrathecally administered.
The conditions of data set [2]: at a pH up to 10.

For `CNC1(c2ccccc2Cl)CCCCC1=O` (stereo not drawn) [ketamine hydrochloride], the “occurrence of postoperative confusional states (emergence reactions)” value in the data set with patients was “approximately 12% of patients”.
As for `CNC1(c2ccccc2Cl)CCCCC1=O` (stereo not drawn) [preservative-free ketamine, ketamine], the neurotoxic effect result in data set [1] was “without neurotoxic effect”.
benzalkonium chloride: the stability entry in data set [2] is on record as “stable at room temperature”.
